From patent publication US20260176636A1, “APTAMER-DIRECT INHIBITOR CONJUGATES AND METHODS OF USING THE SAME” (Duke University, priority 2022, published 2026)
“Also recorded” adds a separate entry of the source.

Tests used:
[1] = molecular target: T1, human factor Xa (Homo sapiens, UniProt P00742); assay: Fluorogenic activity assay (fluorescent peptidyl substrate cleavage), factor Xa; assay type: biochemical; details: for IC50: factor Xa 0.5 nM, fluorogenic substrate 50 μM; for factor Xa inhibition, result in words: fluorogenic substrate assay; for antidote reversal of factor Xa inhibition by 11F7t-20A-DAB, result in words: antidote oligonucleotide
T1 construct: Human alpha thrombin, human factor Xa, and human fibrinogen were purchased from Haematologic Technologies Inc; purchased Haematologic Technologies Inc
Method: (§2) Fluorogenic activity assay: All reagents were freshly reconstituted in the reaction buffer (20 mM HEPES, 150 mM NaCl, and 2 mM CaCl2), 0.02%, Tween 20, pH 7.5) before the assay. 10 μL of thrombin or factor Xa (final concentration 0.5 nM) were first incubated with 5 μL of inhibitor, inhibitor/antidote mixture, or buffer control on a 384-well opaque plate for 5 min at 28° C. 10 μL of fluorogenic substrate (final concentration 50 μM) was then added to the mixture and the time-course fluorescence (λex=352 nm, λem=470 nm) of the sample were recorded every minute for 15 min at 28° C. using a SpectraMax i3 microplate reader (Molecular Devices). The catalytic rate of the protease was quantified by the slope from linear regression of the time-dependent fluorescence intensity and normalized with the sample containing no inhibitor as 100%. Each experiment was performed in triplicates.

[2] = tested on: normal human plasma; assay: Activated partial thromboplastin time (aPTT) plasma coagulation assay; details: for effect on aPTT, result in words: normal human plasma, comparison with DAB at 500 nM
Method: (§1) Plasma coagulation assays: Thrombin time (TT), prothrombin time (PT), and activated partial thromboplastin time (aPTT) assays were performed in citrated normal human plasma on a hemostasis coagulation analyzer (Diagnostica Stago). For TT, 5 μL of inhibitors in the reaction buffer were mixed with 100 μL of plasma and incubated at 37° C. for 5 min. 50 μL of thrombin (6 NIH units/ml) in the reaction buffer was then added to initiate clotting. For PT, 5 μl of inhibitors in the reaction buffer were mixed with 50 μL of plasma and incubated at 37° C. for 5 min. 100 μL of TriniCLOT PT Excel S reagent was then added to initiate clotting. For aPTT, 5 μL of inhibitors in the reaction buffer were mixed with 50 μL of plasma and incubated at 37° C. for 5 min, 50 μL of TriniCLOT aPTT S reagents was then added followed by another 5 min incubation at 37° C. Finally, 50 μL of 20 mM CaCl2) was added to initiate clotting. To characterize antidote reversal of HD22-7A-DAB in the above assays, 5 μL AO2 (finial concentration 2 μM) in the reaction buffer was added after 5-min incubation between plasma and HD22-7A-DAB, followed by another 5 min of incubation before the next step. All assays are performed induplicates.

[3] = molecular target: Human alpha thrombin (Homo sapiens, UniProt P00734); assay: Fluorogenic activity assay (fluorescent peptidyl substrate cleavage), thrombin; details: for thrombin inhibition, result in words / antidote reversal of thrombin inhibition, result in words: fluorogenic substrate assay; for antidote reversal of thrombin inhibition, result in words: antidote oligonucleotide
Method: Initial velocity studies of fluorescent peptidyl substrate cleavage by thrombin were used to assess protease inhibition by the EXACT inhibitor (FIG. 1c).
as §2

[4] = tested on: factor Xa; details: cited from earlier work
[5] = molecular target: T2, thrombin (cleavage of fibrinogen) (Homo sapiens, UniProt P00734); assay: Fibrinogen turbidity assay; assay type: biochemical
T2 construct: Human alpha thrombin, human factor Xa, and human fibrinogen were purchased from Haematologic Technologies Inc; purchased Haematologic Technologies Inc
Method: To test the kinetics of antidote reversal, 1 μL AO2 (final concentration 2 μM) was added to the reaction 10 min after fibrinogen addition. The maximum absorption over the period of assay in the absence and presence of different inhibitors were determined. The time to reach 10%, 50%, and 90% maximum absorption increase from the start point were calculated and recorded as lag time, t50, and t90, respectively, for each inhibitor to evaluate the kinetic of fibrinogen activation. Each experiment was performed in triplicates to determine the mean and standard deviation of each parameter.

[6] = tested on: normal human plasma; assay: Thrombin time (TT) plasma coagulation assay
Method: as §1

[7] = tested on: normal human plasma; assay: Prothrombin time (PT) plasma coagulation assay
Method: as §1

[8] = molecular target: T3, thrombin (FVIII activation) (Homo sapiens, UniProt P00734); assay: Thrombin cleavage of FVIII (SDS-PAGE); assay type: biochemical; details: 100 nM inhibitor, 1 nM thrombin, 100 nM FVIII
T3 construct: Human alpha thrombin, human factor Xa, and human fibrinogen were purchased from Haematologic Technologies Inc; purchased Haematologic Technologies Inc
Method: Thrombin (final concentration 1 nM) was incubated in the absence or presence of thrombin inhibitors (final concentration 100 nM) at 37° C. for 5 min following by addition of recombinant human FVIII (final concentration 100 nM). Sample were collected at 1, 2, 5, 10, 20, 30, 40, and 60 min of reaction and quenched in SDS loading buffer and heating at 95° C. for 5 min. The digestion products at different time points are then characterized on a 4-20% PAGE gel. Thrombin's activity on activating FVIII in the absence and presence of thrombin inhibitors were quantified using the time-course concentration of intact light chain under thrombin digestion determined by band intensity. The assay was performed in duplicates.

[9] = molecular target: thrombin (Homo sapiens, UniProt P00734); details: cited from earlier work
[10] = 2 μM AO2 added at 10 min to thrombin-fibrinogen-HD22-7A-DAB (50 nM)

T1 sequence (P00742 235-488 limits assumed): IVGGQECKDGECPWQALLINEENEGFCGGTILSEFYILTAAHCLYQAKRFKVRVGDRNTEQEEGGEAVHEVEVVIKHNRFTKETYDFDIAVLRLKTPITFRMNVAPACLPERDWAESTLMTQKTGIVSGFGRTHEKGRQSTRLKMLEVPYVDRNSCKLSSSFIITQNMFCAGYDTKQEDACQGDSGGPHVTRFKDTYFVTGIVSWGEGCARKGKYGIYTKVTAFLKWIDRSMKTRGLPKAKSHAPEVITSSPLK
T1 sequence (P00742 41-179 limits assumed): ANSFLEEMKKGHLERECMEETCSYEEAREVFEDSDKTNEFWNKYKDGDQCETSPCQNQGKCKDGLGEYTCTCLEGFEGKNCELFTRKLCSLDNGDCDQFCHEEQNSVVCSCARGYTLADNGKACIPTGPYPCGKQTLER

Question: With “11F7t-20A-APX (GAGAGCCCCAGCGAGAUAAUACUUGGCCCCGCUCUUU; 5' APX-C6H12-2'OMeA linker conjugate; modified_base 37 OTHER; Inverted dT)” as the compound, how does the IC50 [1] read?
Answer: Its IC50 is 170 pM.

Question: And the “effect on aPTT, result in words” value [2]?
Answer: Its value is “significantly higher anticoagulant activity than free aptamer, small molecule inhibitor, and their equimolar mixture”.

Question: For “11F7t-20A-DAB (GAGAGCCCCAGCGAGAUAAUACUUGGCCCCGCUCUUU; 5' DAB-C6H12-2'OMeA linker conjugate; modified_base 37 OTHER; Inverted dT)”, which IC50 [1] is on record?
Answer: Its IC50 is 180 pM.

Question: What about the “factor Xa inhibition, result in words” value [1] of the same compound?
Answer: The value was “significantly higher inhibitory effect of thrombin than DAB, 11F7t, or their equimolar mixture”.

Question: And the “enhancement in the IC50 for factor Xa when DAB is conjugated to 11F7t” value ([1]; versus free DAB)?
Answer: Its value is over 2500 fold.

Question: What about the “thrombin inhibition, result in words” value [3] of the same compound?
Answer: The value was “no different from DAB alone”.

Question: With “11F7t: factor Xa RNA aptamer, SEQ ID NO: 9 (GAGAGCCCCAGCGAGAUAAUACUUGGCCCCGCUCUUU; modified_base 37 OTHER; Inverted dT) [reference compound]” as the compound, how does the “factor Xa inhibition, result in words” value [1] read?
Answer: The value was “showed no inhibition”.

Question: What about the Kd ([4]; free aptamer) of the same compound?
Answer: Its Kd is 1260 pM.

Question: With COc1ccc(-n2nc(C(=O)O)c3c2C(=O)N(c2ccc(N4CCCCC4=O)cc2)CC3)cc1 [APX, apixaban-COOH, reference compound] as the compound, how does the IC50 [1] read?
Answer: Its IC50 is 5500 pM.

Question: With “AO2: antidote oligonucleotide complementary to entire HD22 aptamer and linker, SEQ ID NO: 4 (AGTCACCCCAACCTGCCCTACCACGGACTTTTTTTT; antidote oligonucleotide complementary to aptamer and linker, chemistry not given here, further chemistry not given here)” as the compound, how does the “lag time after antidote addition” value [5, 10] read?
Answer: The value was 9.8 min.

Question: And the “time over which absorbance increased and saturated after antidote” value [5, 10]?
Answer: The value was 20.7 min.

Question: And the “antidote reversal of HD22-7A-DAB in TT” value ([6]; 2 μM AO2)?
Answer: The value was “largely reversed within 5 minutes”.

Question: What about the “antidote reversal of HD22-7A-DAB in PT” value ([7]; 2 μM AO2) of the same compound?
Answer: The value was “efficiently reversed”.

Question: What about the “antidote reversal of HD22-7A-DAB in aPTT” value ([2]; 2 μM AO2) of the same compound?
Answer: The value was “efficiently reversed”.

Question: And the “reduction of the potency of HD22-7A-DAB by antidote” value ([3]; antidote oligonucleotide added to HD22-7A-DAB, FIG. 1c)?
Answer: The value was “more than 10,000 fold”.

Question: What about the “antidote reversal of thrombin inhibition, result in words” value [3] of the same compound?
Answer: The value was “efficiently reversed; also recorded: reduces the potency of the EXACT conjugate to an extent that is significantly lower than free DAB”.

Question: With “AO5.4: antidote for 11F7t-20A-DAB pairing with entire linker and part of aptamer, SEQ ID NO: 11 (TATTATCTCGCTGGGGCTCTCTTTTTTTTTTTTTTTTTTTT; antidote oligonucleotide, chemistry not given here, further chemistry not given here)” as the compound, how does the “antidote reversal of factor Xa inhibition by 11F7t-20A-DAB, result in words” value ([1]; listed as A05.4) read?
Answer: The value was “efficiently reversed”.

Question: What about the “antidote reversal of factor Xa inhibition by 11F7t-20A-DAB, result in words” value ([1]; listed as AG5.4) of the same compound?
Answer: The value was “effectively reverses the inhibition”.

Question: For “HD1-12A-DAB (GGTTGGTGTGGTTGG; 3' DAB conjugate via C6H12O2 linker, further chemistry not given here)”, which “thrombin inhibition, result in words” value [3] is on record?
Answer: Its value is “significantly higher inhibitory effect to thrombin compared with DAB, HD1, or their equimolar mixture”.

Question: What about the “antidote reversal of thrombin inhibition, result in words” value [3] of the same compound?
Answer: Its value is “efficiently reversed by specific antidotes; also recorded: efficiently reversed by an antisense oligo”.

Question: Which “inhibition of thrombin-mediated fibrin clot formation, result in words” value ([5]; 50 nM inhibitor, 2.5 nM thrombin, 0.8 mg/mL fibrinogen, absorbance 550 nm) does the source give for “HD22: thrombin exosite II-binding DNA aptamer, SEQ ID NO: 1 [reference compound]” here?
Answer: Its value is “did not inhibit this thrombin activity”.

Question: And the “inhibition of thrombin-mediated FVIII cleavage, result in words” value [8]?
Answer: The value was “showed an inhibitory effect”.

Question: And the “effect on TT, result in words” value ([6]; normal human plasma)?
Answer: The value was “minimally affected TT”.

Question: And the “effect on PT, result in words” value ([7]; normal human plasma, comparison with DAB at 500 nM)?
Answer: The value was “no anticoagulant effect”.

Question: What about the “effect on aPTT, result in words” value [2] of the same compound?
Answer: The value was “no anticoagulant effect”.

Question: What about the Kd ([9]; read-out: KD, thrombin anion binding exosite 2) of the same compound?
Answer: The Kd was 500 pM.

Question: What about the “maximum inhibition of thrombin activity” value ([3]; thrombin 0.5 nM, fluorogenic substrate) of the same compound?
Answer: Its value is 30%.

Question: Which Ki ([4]; read-out: Ki, free FXa) does the source give for “TAP: Tick anticoagulant peptide secreted by Ornithodoros moubata, factor Xa inhibitor (YNRLCIKPRDWIDECDSNEGGERAYFRNGKGGCDSFWICPEDHTGADYYSSYRDCFNACI; UniProt P17726 1-60, looked up)” here?
Answer: The Ki was 180 pM.

Question: Which Ki ([9]; read-out: inhibition constant (Ki), thrombin) does the source give for hirudin here?
Answer: Its Ki is 10 pM.
